# Measurements published in PubChem BioAssay (NCI).
#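 Assay format: 96-well plates, 48-hour exposure. TGI marks complete inhibition of growth.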
# How the values were obtained:
# Assay in all cases: growth of human tumour cells (NCI), 48 h
# [1] = test system: 786-0 renal
# [2] = test system: A549 NSCLC
# [3] = test system: ACHN renal
# [4] = test system: CAKI-1 renal
# [5] = test system: CCRF-CEM leukemia
# [6] = test system: COLO 205 colon
# [7] = test system: DU-145 prostate
# [8] = test system: EKVX NSCLC
# [9] = test system: HCC-2998 colon
# [10] = test system: HCT-116 colon
# [11] = test system: HCT-15 colon
# [12] = test system: HL-60(TB) leukemia
# [13] = test system: HOP-62 NSCLC
# [14] = test system: HOP-92 NSCLC
# [15] = test system: HS 578T breast
# [16] = test system: HT29 colon
# [17] = test system: IGROV1 ovarian
# [18] = test system: K-562 leukemia
# [19] = test system: KM12 colon
# [20] = test system: LOX IMVI melanoma
# [21] = test system: M14 melanoma
# [22] = test system: MALME-3M melanoma
# [23] = test system: MCF7 breast
# [24] = test system: MDA-MB-231 breast
# [25] = test system: MDA-MB-435
# [26] = test system: MDA-N
# [27] = test system: MOLT-4 leukemia
# [28] = test system: NCI-H226 lung
# [29] = test system: NCI-H23 lung
# [30] = test system: NCI-H460 lung
# [31] = test system: NCI/ADR-RES ovarian
# [32] = test system: OVCAR-3 ovarian
# [33] = test system: OVCAR-4 ovarian
# [34] = test system: OVCAR-5 ovarian
# [35] = test system: OVCAR-8 ovarian
# [36] = test system: PC-3 prostate
# [37] = test system: RPMI-8226 leukemia
# [38] = test system: RXF 393 renal
# [39] = test system: SF-268 CNS
# [40] = test system: SF-295 CNS
# [41] = test system: SF-539 CNS
# [42] = test system: SK-MEL-2 melanoma
# [43] = test system: SK-MEL-28 melanoma
# [44] = test system: SK-MEL-5 melanoma
# [45] = test system: SK-OV-3 ovarian
# [46] = test system: SN12C renal
# [47] = test system: SNB-19 CNS
# [48] = test system: SNB-75 CNS
# [49] = test system: SR leukemia
# [50] = test system: SW-620 colon
# [51] = test system: T-47D breast
# [52] = test system: TK-10 renal
# [53] = test system: U251 CNS
# [54] = test system: UACC-257 melanoma
# [55] = test system: UACC-62 melanoma
# [56] = test system: UO-31 renal
# [57] = test system: A498 renal
# [58] = test system: NCI-H522 lung
smiles,measurement,setting,value
c1ccc(C[n+]2ccc3c(c2)CCCC3)cc1,TGI,[1],> 100 µM
same,TGI,[2],> 100 µM
same,TGI,[3],> 100 µM
same,TGI,[4],> 100 µM
same,TGI,[5],> 100 µM
same,TGI,[6],> 100 µM
same,TGI,[7],> 100 µM
same,TGI,[8],85.8 µM
same,TGI,[9],> 100 µM
same,TGI,[10],> 100 µM
same,TGI,[11],> 100 µM
same,TGI,[12],> 100 µM
same,TGI,[13],> 100 µM
same,TGI,[14],> 100 µM
same,TGI,[15],> 100 µM
same,TGI,[16],> 100 µM
same,TGI,[17],> 100 µM
same,TGI,[18],> 100 µM
same,TGI,[19],> 100 µM
same,TGI,[20],> 100 µM
same,TGI,[21],> 100 µM
same,TGI,[22],> 100 µM
same,TGI,[23],> 100 µM
same,TGI,[24],> 100 µM
same,TGI,[25],> 100 µM
same,TGI,[26],> 100 µM
same,TGI,[27],> 100 µM
same,TGI,[28],> 100 µM
same,TGI,[29],> 100 µM
same,TGI,[30],> 100 µM
same,TGI,[31],> 100 µM
same,TGI,[32],> 100 µM
same,TGI,[33],> 100 µM
same,TGI,[34],> 100 µM
same,TGI,[35],> 100 µM
same,TGI,[36],> 100 µM
same,TGI,[37],> 100 µM
same,TGI,[38],> 100 µM
same,TGI,[39],> 100 µM
same,TGI,[40],> 100 µM
same,TGI,[41],> 100 µM
same,TGI,[42],> 100 µM
same,TGI,[43],> 100 µM
same,TGI,[44],> 100 µM
same,TGI,[45],> 100 µM
same,TGI,[46],> 100 µM
same,TGI,[47],> 100 µM
same,TGI,[48],> 100 µM
same,TGI,[49],> 100 µM
same,TGI,[50],> 100 µM
same,TGI,[51],> 100 µM
same,TGI,[52],> 100 µM
same,TGI,[53],> 100 µM
same,TGI,[54],> 100 µM
same,TGI,[55],> 100 µM
same,TGI,[56],> 100 µM
CC(C)=CCc1ccc2[nH]c3c(c2c1)C(=O)C(=O)C(C)=C3C(O)C(C)O (stereo unspecified),TGI,[1],3.27 µM
same,TGI,[57],25.8 µM
same,TGI,[2],56.5 µM
same,TGI,[3],11.5 µM
same,TGI,[4],11.5 µM
same,TGI,[5],4.98 µM
same,TGI,[6],4.89 µM
same,TGI,[7],22.4 µM
same,TGI,[8],30.1 µM
same,TGI,[9],14.8 µM
same,TGI,[10],3.43 µM
same,TGI,[11],16.3 µM
same,TGI,[12],2.53 µM
same,TGI,[13],37.8 µM
same,TGI,[14],3.51 µM
same,TGI,[15],50.1 µM
same,TGI,[16],35.1 µM
same,TGI,[17],7.2 µM
same,TGI,[18],5.78 µM
same,TGI,[19],30.1 µM
same,TGI,[20],4.73 µM
same,TGI,[21],3.9 µM
same,TGI,[22],3.37 µM
same,TGI,[23],3.4 µM
same,TGI,[24],15.8 µM
same,TGI,[25],9.57 µM
same,TGI,[26],19.7 µM
same,TGI,[27],4.83 µM
same,TGI,[28],34.2 µM
same,TGI,[29],31.8 µM
same,TGI,[30],37.2 µM
same,TGI,[31],> 85.4 µM
same,TGI,[32],13 µM
same,TGI,[33],13.2 µM
same,TGI,[34],34.2 µM
same,TGI,[35],3.91 µM
same,TGI,[36],43.4 µM
same,TGI,[37],6.17 µM
same,TGI,[38],4.68 µM
same,TGI,[39],25 µM
same,TGI,[40],25 µM
same,TGI,[41],34 µM
same,TGI,[42],> 82.9 µM
same,TGI,[43],28.1 µM
same,TGI,[44],7.22 µM
same,TGI,[45],29.7 µM
same,TGI,[46],45.8 µM
same,TGI,[47],31 µM
same,TGI,[48],34.1 µM
same,TGI,[49],12.4 µM
same,TGI,[50],4.7 µM
same,TGI,[51],6.11 µM
same,TGI,[52],4.76 µM
same,TGI,[53],13.2 µM
same,TGI,[54],3.71 µM
same,TGI,[55],11.6 µM
same,TGI,[56],2.96 µM
Cc1ccc(S(=O)(=O)N2CCCN(S(=O)(=O)c3ccc(C)cc3)CC2)cc1,TGI,[57],69.2 µM
same,TGI,[3],> 100 µM
same,TGI,[5],> 100 µM
same,TGI,[6],> 100 µM
same,TGI,[7],> 100 µM
same,TGI,[9],> 100 µM
same,TGI,[10],> 100 µM
same,TGI,[11],> 100 µM
same,TGI,[14],> 100 µM
same,TGI,[15],> 100 µM
same,TGI,[16],> 100 µM
same,TGI,[18],> 100 µM
same,TGI,[19],> 100 µM
same,TGI,[21],> 100 µM
same,TGI,[23],> 100 µM
same,TGI,[24],> 100 µM
same,TGI,[25],> 100 µM
same,TGI,[26],> 100 µM
same,TGI,[27],> 100 µM
same,TGI,[28],> 100 µM
same,TGI,[29],> 100 µM
same,TGI,[30],> 100 µM
same,TGI,[58],> 100 µM
same,TGI,[31],> 100 µM
same,TGI,[32],> 100 µM
same,TGI,[33],> 100 µM
same,TGI,[35],> 100 µM
same,TGI,[36],> 100 µM
same,TGI,[38],> 100 µM
same,TGI,[39],> 100 µM
same,TGI,[40],> 100 µM
same,TGI,[43],> 100 µM
same,TGI,[44],> 100 µM
same,TGI,[46],> 100 µM
same,TGI,[47],> 100 µM
same,TGI,[48],> 100 µM
same,TGI,[49],> 100 µM
same,TGI,[50],> 100 µM
same,TGI,[51],> 100 µM
same,TGI,[52],> 100 µM
same,TGI,[53],> 100 µM
same,TGI,[54],> 100 µM
same,TGI,[56],> 100 µM
